Drawing on US20220332701A1, “HETEROCYCLIC COMPOUNDS AS BCR-ABL INHIBITORS” (ASCENTAGE PHARMA (SUZHOU) CO., LTD., priority 2019, published 2022), this text covers GI50 for 11 molecules.

One experiment addresses BaF3(WT) (Homo sapiens, UniProt P00519). Description: WST (CCK-8) anti-proliferation assay, BaF3 WT cells. To be noted: read-out: BaF3(WT); anti-proliferative IC50, 72 h treatment, CCK-8, BaF3 WT.
A further experiment addresses BaF3(T315I) (Homo sapiens, UniProt P00519, T315I, cells depend on it). The experiment can be described thus: WST (CCK-8) anti-proliferation assay, BaF3 T315I cells. To be noted: read-out: BaF3(T315I); anti-proliferative IC50, 72 h treatment, CCK-8, BaF3 T315I.

Molecules are shown by their SMILES.

Experimental for BaF3(T315I): The anti-proliferative effect of representative Compounds of the Disclosure was determined by a water-soluble tetrazolium (WST)-based assay using Cell Counting Kit-8 (CCK-8). Cells were seeded in 96-well plates and treated with different concentrations of test articles for 72 h. Each treatment was tested in triplicates. Briefly, a series of 9 concentrations were chosen for each test article and added at 100 μl/well into a 96-well plate. Each concentration was tested in triplicates. 100 μl of diluent was added into 3-6 wells in the same plate for cell control group, and another set of 3-6 wells was used as a blank control.
In each well, 100 μl of cell suspension (containing optimal cell numbers, which creates approximately 100% confluence of cells in control wells based on by the absorbance (OD) value) was dispensed into the same 96-well plate except for the blank well. The plate was then cultured at 37° C. in an incubator in an atmosphere with 5% CO2 for 72 h. At the end of treatments, 20 μl/well of CCK-8 reagent was directly added to each wells. The plate was then incubated at 37° C. in an incubator in an atmosphere with 5% CO2 for 2-4 hour.
The cells viability was calculated using the mean OD value of triplicated wells following the equation below: (OD sample−OD blank)/(OD cell control−OD blank)×100 IC50 values were calculated with Graphpad Prism 6.0 software using nonlinear regression (curve fitting) type data analysis.

In the case of `CC(C)N1c2c(cc(C(=O)Nc3ccc(OC(F)(F)Cl)cc3)cc2-c2ccn[nH]2)CC1C(=O)N(C)C` (stereo not shown) [VII-26, N5-(4-(chlorodifluoromethoxy)phenyl)-1-isopropyl-N2,N2-dimethyl-7-(1H-pyrazol-5-yl)indoline-2,5-dicarboxamide], the GI50 at BaF3(WT) is 39 nM; at BaF3(T315I), 199 nM.

For `CC1(C)c2c(cc(C(=O)Nc3ccc(OC(F)(F)Cl)cc3)cc2-c2ccn[nH]2)C(=O)N1CCN1CCS(=O)(=O)CC1` [IV-7, N-(4-(chlorodifluoromethoxy)phenyl)-2-(2-(1,1-dioxidothiomorpholino)ethyl)-1,1-dimethyl-3-oxo-7-(1H-pyrazol-5-yl)isoindoline-5-carboxamide], the values for the GI50 on BaF3(WT) and at BaF3(T315I) were 364 nM and 1750 nM, respectively.

Consider `CC(C)N1C(=O)C(C)(C)c2cc(C(=O)Nc3ccc(OC(F)(F)Cl)cc3)cc(-c3cncnc3)c21` [VIII-2, N-(4-(chlorodifluoromethoxy)phenyl)-1-isopropyl-3,3-dimethyl-2-oxo-7-(pyrimidin-5-yl)indoline-5-carboxamide], for which the figures for the GI50 on BaF3(WT) and on BaF3(T315I) were 359 nM and 1990 nM, respectively.

As for `CC(C)N1c2c(cc(C(=O)Nc3ccc(OC(F)(F)Cl)cc3)cc2-c2ccn[nH]2)CC1C(=O)N1CC[C@@H](O)C1` (stereo partly drawn) [VII-29, N-(4-(chlorodifluoromethoxy)phenyl)-2-((R)-3-hydroxypyrrolidine-1-carbonyl)-1-isopropyl-7-(1H-pyrazol-5-yl)indoline-5-carboxamide], the GI50 on BaF3(WT) was 113 nM; on BaF3(T315I), 940 nM.

As for `CC(C)N1CCCc2cc(C(=O)Nc3ccc(OC(F)(F)Cl)cc3)cc(-c3ccn[nH]3)c21` [IX-1, N-(4-(chlorodifluoromethoxy)phenyl)-1-isopropyl-8-(1H-pyrazol-5-yl)-1,2,3,4-tetrahydroquinoline-6-carboxamide], the values for the GI50 on BaF3(WT) and at BaF3(T315I) were 235 nM and 1050 nM, respectively.

In the case of `CN1C(=O)c2cc(C(=O)Nc3ccc(OC(F)(F)Cl)cc3)cc(-c3ccn[nH]3)c2C1(C)C` [IV-1, N-(4-(chlorodifluoromethoxy)phenyl)-1,1,2-trimethyl-3-oxo-7-(1H-pyrazol-5-yl)isoindoline-5-carboxamide], the GI50 on BaF3(WT) was 24 nM; on BaF3(T315I), 244 nM.

`O=C(Nc1ccc(OC(F)(F)Cl)cc1)c1cc2c(c(-c3ccn[nH]3)c1)N(CCO)CC2` [VII-6, N-(4-(chlorodifluoromethoxy)phenyl)-1-(2-hydroxyethyl)-7-(1H-pyrazol-5-yl) indoline-5-carboxamide]: the GI50 on BaF3(WT) was 112 nM; at BaF3(T315I), 250 nM.

Turning to `CC(C)N1c2c(cc(C(=O)Nc3ccc(OC(F)(F)Cl)cc3)cc2-c2cncnc2)CC1C(=O)NCCS(C)(=O)=O` (stereo not shown) [VII-22, N5-(4-(chlorodifluoromethoxy)phenyl)-1-isopropyl-N2-(2-(methylsulfonyl)ethyl)-7-(pyrimidin-5-yl)indoline-2,5-dicarboxamide], the results for the GI50 on BaF3(WT) and at BaF3(T315I) were 145 nM and 1350 nM, respectively.

Regarding `O=C(Nc1ccc(OC(F)(F)Cl)cc1)c1cc2c(c(-c3ccn[nH]3)c1)N(C1CC(CCl)C1)CC2` (stereo not shown) [VII-11, N-(4-(chlorodifluoromethoxy)phenyl)-1-(3-(chloromethyl)cyclobutyl)-7-(1H-pyrazol-3-yl)indoline-5-carboxamide], the GI50 at BaF3(WT) was 29 nM; on BaF3(T315I) it was 946 nM.

`Cc1ccc(-c2cc(C(=O)Nc3ccc(OC(F)(F)Cl)cc3)cc3c2C(C)(C)N(C)C3=O)o1` [IV-2, N-(4-(chlorodifluoromethoxy)phenyl)-1,1,2-trimethyl-7-(5-methylfuran-2-yl)-3-oxoisoindoline-5-carboxamide]: the figures for the GI50 on BaF3(WT) and at BaF3(T315I) were 399 nM and 3340 nM, respectively.

Turning to `CN1CCc2cc(C(=O)Nc3ccc(SC(F)(F)F)cc3)cc(-c3ccn[nH]3)c21` [VII-44, 1-methyl-7-(1H-pyrazol-5-yl)-N-(4-((trifluoromethyl)thio)phenyl)indoline-5-carboxamide], the GI50 at BaF3(WT) worked out at 66 nM; on BaF3(T315I) it was 666 nM.
